# Reference: patent publication US20130158024A1, “TRICYCLIC NECROSTATIN COMPOUNDS” (priority 2005, published 2013)
# Entries after “also recorded” stand apart in the source; their conditions may differ. Where a SMILES comes first, the peptide text is derived from it. The star is where a group is joined. Cbz = O=C(OCc1ccccc1)*; CH2F = FC*
# Columns and labels:
# [1] = tested on: Primary mouse CD4+ and CD8+ T cells; test: Activation-induced cell death (AICD) of primary CD4+ and CD8+ T cells; type: cell-based; conditions: re-activated CD4+ cells
# Procedure: Cell viability was assessed using Sytox Green (Molecular Probes) (CD8) or propidium iodide exclusion (CD4) assays in FIG. 17A or ATP assay in FIG. 17B. Numbers represent the percentages of live cells normalized to the corresponding compound treated controls lacking αCD3.
# primary cortical neurons = test: Oxygen-glucose deprivation (OGD) induced death of primary cortical neurons, MAP2 cytoblot; type: cell-based; conditions: OGD 90 minutes, 24 hours recovery; 30 μM
# Procedure: Cells were allowed to recover in the presence of the compounds (except for the CNQX/MK801) for 24 hours, and specific neuronal viability was determined using MAP2 cytoblot. Values represent the percentages of live cells normalized to the compound treated cells, which were maintained in glucose-containing, non-deoxygenated media. **—P<0.02. […] Cells were allowed to recover in the presence of the compounds for 24 hours, and specific neuronal viability was determined using MAP2 cytoblot. Values represent the percentages of live cells normalized to the compound treated cells, which were maintained in glucose-containing, non-deoxygenated media. **—P<0.04.
# Jurkat T cells = test: Necrosis (CICD) of Jurkat T cells induced by Fas ligand, cycloheximide and zVAD, ATP assay; type: cell-based, human; conditions: FasL/CHX/zVAD
# Procedure: Jurkat cells were treated with 5 ng/ml of FasL without (A) or with cyclohexamide (CHX) (B) to induce apoptosis, or 5 ng/ml FasL, 1 μg/ml of CHX and 100 μM of zVAD.fmk to induce CICD (B). […] Cell viability was determined after 24 hours of incubation with indicated reagents using CellTiter-Glo ATP assay. The values represent viability relative to the control Jurkat cells without the treatment of FasL, which was set as 100% viability.
# FIG. 34A is a graph showing the results of treating Jurkat T cells with Fas ligand (5 ng/ml), cyclohexamide (1 μg/ml) and zVAD (100 μM) in the presence of the indicated amounts of anti-necrotic compounds (4) and (5). Viability was determined 36 hours later using an ATP assay. The viability values are relative to the samples lacking Fas ligand, which were used as 100% viability controls. FIG. 34B is a graph as in FIG. 34A, in which the anti-necrotic compounds are (19) and (20).
# Compounds were also tested in another necrosis assay utilizing human Jurkat T cells, Fas ligand to induce cell death, and zVAD to inhibit the apoptosis pathway. After 36 hours, cell viability was measure by the commercial CellTiter ATP cell viability assay (Promega).
# L929 cells = test: TNFα-induced CICD of L929 cells, ATP assay; type: cell-based, mouse; conditions: no caspase inhibitor
# Procedure: Cell viability was determined using ATP-Lite-M ATP assay (Packard). The values represent viability relative to the control lacking TNFα, which was set as 100% viability.
# Cell viability in this and subsequent panels was determined by ATP-based viability assay. Numbers represent percentages of the live cells normalized to those in the untreated control wells. Throughout, error bars represent standard deviations. […] Numbers represent viability normalized to that of the corresponding compound-treated cells in the absence of FasL. […] Numbers represent viability normalized to that of the corresponding compound-treated cells in the absence of dimerizer. […] Cells were treated with TNFα (E, F, H), zVAD.fmk (E, F), or CHX (F) for 16 (F) or 24 (E, H) hours. Numbers represent viability normalized to that of the compound-treated cells in the absence of TNFα.
# BALB/c 3T3 cells = test: CICD of BALB/c 3T3 cells induced by TNFα/zVAD.fmk; type: cell-based, mouse
# U-937 cells = test: Necrosis of low density U-937 cells induced by zVAD-fmk and DMSO, ATP levels; type: cell-based, human; conditions: U-937 1×10^5 cells/ml, 72 hours
# Procedure: Methods for the identification of chemical compounds that decrease cell necrosis induced, for example, by zVAD-fmk/DMSO at a low cell density (e.g., 1×10^5 cells/ml) are achieved essentially as described above, except, the inducer of necrosis is zVAD-fmk/DMSO, rather than zVAD-fmk/TNFα.
# Exposure of low density U-937 cells (1×10^5 cells/ml) to zVAD-fmk (100 μM) and DMSO (0.5%) for 72 hours results in cell death by necrosis. The compounds identified to decrease cell necrosis triggered by zVAD-fmk and TNFα, compounds 115807, 115681, 210227, and 215686 from the ChemBridge chemical library, were also evaluated for their ability to decrease cell necrosis induced by zVAD-fmk and DMSO. The cells (1×10^5 cells/ml) were first exposed to zVAD-fmk, and then thirty minutes later to the above-identified small molecules that decrease necrosis. After an additional 30 minutes, the cells were exposed to DMSO. 72 hours after exposure to the compounds, cellular ATP levels were measured, as described above.
# U937 cells = test: Necrosis of U937 cells induced by TNFα and zVAD.fmk (primary and secondary screen), ATP assay; type: cell-based, human; conditions: U937, 72 hours
# Procedure: We plated U937 cells in 384-well plates at 5,000-10,000 cells per well in 40-μl phenol red-free RPMI 1640 medium containing 100 μM zVAD.fmk and 40 ng ml^−1 human TNFα using a Multidrop dispenser (Thermo Electron). We added 100 nl of the DiverSetE (5 mg ml^−1 in DMSO, Chembridge) using a Seiko-based custom-built pin transfer robot (Institute of Chemistry and Cell Biology, Harvard Medical School). After 72 hours, we assessed cell viability using a luminescence-based ATP assay (ATPLite-M, PerkinElmer). We also dispensed cells not treated with TNFα in each plate as a positive control. We purchased Nec-1 and other preliminary positive hits from Chembridge for individual retesting.
# Using a known paradigm of death receptor mediated caspase-independent cell death in human U937 cells, we established a high-throughput screen in 384 well format for small molecule inhibitors of caspase-independent cell death (CICD). In this system, U937 cells were induced to undergo CICD in the presence of TNFα and zVAD.fmk, and the rate of cell death was determined by an ATP-Lite-M assay, a commercial luminescence-based assay measuring cellular ATP levels (Packard). U937 cells were chosen because these cells can be induced to undergo CICD very efficiently upon TNFα/zVAD treatment in the absence of additional, stress-inducing sensitizing stimuli, such as CHX, making this system perfectly suited for reliable identification of CICD inhibitors. Furthermore, rapid suspension growth kinetics of U937 cells results in the availability of large quantities of cells, which translates into robust signals ideal for high throughput screening. ATP-Lite-M assay was chosen because among all the different assay systems tested, it gives the most consistent and robust signal, which is also critical for high throughput screening. Exposure of U937 cells to TNFα alone led to partial cell death, whereas co-treatment with TNFα and caspase inhibitor zVAD.fmk produced significant increase in the amount of cell death and ATP loss consistent with the published observations. In addition, in the presence of zVAD.fmk, the morphology of cell loss changed from apoptosis with cell shrinkage, nuclear fragmentation, membrane blebbing to necrosis, characterized by cell swelling, increase in cytosolic density, and early loss of plasma membrane integrity. Other cell death assays, such as an MTT assay (mitochondrial metabolism) and Sytox assay (permeability of the plasma membrane), were used as alternative means to validate the screen, and consistently produced results similar to those obtained using ATP-Lite-M assay, which confirmed that the ATP-Lite-M assay can be used to accurately measure the extent of CICD.
# In a primary screen, U-937 cells (5×10^5 or 7.5×10^5 cells/ml) were first exposed to zVAD-fmk (100 μM). Thirty minutes later the same cells were exposed to a chemical compound from the library (5 mg/ml, dissolved in 0.1-0.5 μl of DMSO, giving a final DMSO concentration of 0.3% to 1.5%). After an additional thirty minutes, TNFα (40 ng/ml) was added to the cell culture medium. The cells were then incubated at 37 C for 72 hours, and were then assayed for cellular ATP levels. […] Compounds which maintained cellular ATP levels were compounds which blocked necrosis triggered by zVAD-fmk and TNFα.
# In a secondary screen, the compounds identified from the first screen, above, to decrease necrosis induced by zVAD-fmk and TNFα were assayed for their potency. Serial dilution of each chemical compound was performed and the compounds were administered to U-937 cells, as per the primary screen. The concentrations of each compound were 70 μM, 23 μM, 8 μM, and 2.5 μM. The level of necrosis occurring in response to zVAD-fmk, TNFα, and the various concentrations of chemical compounds was assayed as described above for the primary screen.
# [2] = tested on: FADD-deficient Jurkat T cells treated with TNF-α; test: Inhibition of necroptosis (CICD) in FADD-deficient Jurkat T cells treated with TNF-α, ATP-based viability; type: cell-based, human; conditions: for antinecroptotic (anti-CICD) activity, in words: FADD-deficient Jurkat cells, TNFα
# CD8+ cells = test: Activation and proliferation of CD8+ cytotoxic T lymphocytes (CTL) suppressed by zVAD.fmk; type: cell-based, mouse; conditions: 100 μM zVAD.fmk, 30 μM compound
# Procedure: Numbers of cells were determined using FACS analyses. Cell numbers are normalized to the number of cells in unstimulated control, which was set as 100%. […] Cells were stained with αCD8^+-FITC antibody (Pharmingen) and CD8^+ cell numbers were determined by FACS. Cell numbers are normalized to the number of cells in unstimulated control, which was set as 100%. Percentages of dead cells (line) was determined by co-staining cells with propidium iodide.
# Values represent fold increase over unstimulated control.
# Cells were stained with αCD8^+-FITC antibody (Pharmingen), and CD8^+ cell numbers were determined by FACS. Cell numbers are normalized to the number of cells in unstimulated control, which was set as 100%. Percentages of dead cells (line) were determined by co-staining cells with propidium iodide.
# RIP1 = target: T1, RIP1 (Homo sapiens, UniProt Q13546); test: In vitro kinase assay: autophosphorylation of immunoprecipitated RIP1; type: biochemical; conditions: radioactive ATP, 30 min at 30° C., autoradiography
# T1 construct: RIP has been immunoprecipitated (IP) from lysates of WT and RIP-deficient Jurkat cells using agarose-conjugated anti-RIP antibody; endogenous in cells; host or cells: Jurkat (wild type)
# [3] = tested on: FADD deficient Jurkat cells; conditions: compound in the absence of TNFα
# T1 sequence (Q13546 whole entry): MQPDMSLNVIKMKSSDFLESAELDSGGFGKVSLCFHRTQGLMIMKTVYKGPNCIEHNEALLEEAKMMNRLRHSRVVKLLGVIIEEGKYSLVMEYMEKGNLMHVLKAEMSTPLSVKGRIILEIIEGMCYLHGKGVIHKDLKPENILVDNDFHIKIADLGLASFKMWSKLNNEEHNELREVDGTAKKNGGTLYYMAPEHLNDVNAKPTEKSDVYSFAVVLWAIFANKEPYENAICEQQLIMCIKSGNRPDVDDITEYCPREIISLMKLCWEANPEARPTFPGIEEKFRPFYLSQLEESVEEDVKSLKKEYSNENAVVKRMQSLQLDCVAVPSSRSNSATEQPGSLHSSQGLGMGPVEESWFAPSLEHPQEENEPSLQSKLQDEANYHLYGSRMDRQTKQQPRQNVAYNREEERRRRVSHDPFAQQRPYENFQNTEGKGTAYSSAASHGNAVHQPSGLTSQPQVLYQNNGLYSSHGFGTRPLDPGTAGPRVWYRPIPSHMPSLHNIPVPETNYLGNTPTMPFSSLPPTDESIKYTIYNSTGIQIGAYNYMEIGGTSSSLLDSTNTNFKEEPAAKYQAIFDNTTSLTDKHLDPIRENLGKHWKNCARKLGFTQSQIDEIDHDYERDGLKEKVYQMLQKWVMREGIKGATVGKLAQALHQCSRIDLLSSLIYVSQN
smiles,measurement,setting,value
"COC(=O)C[C@H](NC(=O)[C@H](C)NC(=O)[C@@H](NC(=O)OCc1ccccc1)C(C)C)C(=O)CF [zVAD.fmk, N-benzyloxycarbonyl-Val-Ala-Asp-(OMe) fluoromethyl ketone, reference compound] (Cbz-Val-Ala-Asp(OMe)-CH2F)","effect on AICD, compound alone, in words",[1],only partially protective
same,"protection from OGD-induced neuronal death, in words",primary cortical neurons,did not detect any protection by zVAD.fmk
"CCCNC(=O)[C@H]1O[C@@H]1C(=O)N[C@H](C(=O)N1CCC[C@H]1C(=O)OC)[C@@H](C)CC [Ca-074-Me, reference compound]","inhibition of CICD/necrosis of Jurkat cells, in words",Jurkat T cells,inhibits CICD in Jurkat and 3T3 cells
same,"protection of L929 cells from TNFα-induced CICD, in words",L929 cells,neither these compounds nor geldanamycin work in L929 cells
same,"inhibition of CICD in 3T3 cells, in words",BALB/c 3T3 cells,inhibits CICD in Jurkat and 3T3 cells
Cc1cc(O)c(C(=O)/C=C/c2ccc(O)c([N+](=O)[O-])c2)c(=O)o1 [Compound 115681],"decrease of necrosis induced by zVAD-fmk/DMSO, in words",U-937 cells,also decreased necrosis induced by zVAD-fmk/DMSO
same,"inhibition of necrosis induced by TNFα/zVAD.fmk, in words",U937 cells,identified to decrease necrosis in response to exposure of the cell to zVAD-fmk and TNFα
CN1C(=O)C(Cc2c[nH]c3ccccc23)NC1=S (stereo not shown) [Compound 115807],"decrease of necrosis induced by zVAD-fmk/DMSO, in words",U-937 cells,also decreased necrosis induced by zVAD-fmk/DMSO
same,"inhibition of necrosis induced by TNFα/zVAD.fmk, in words",U937 cells,identified to decrease necrosis in response to exposure of the cell to zVAD-fmk and TNFα
"Cn1cnc(N)c2ncnc1-2 [Compound 3MA, 3-methyladenine, reference compound]","inhibition of CICD in 3T3 cells, in words",BALB/c 3T3 cells,necroptosis proceeded normally in the presence of 3-methyladenine (3MA)
same,"antinecroptotic (anti-CICD) activity, in words",[2],necroptosis proceeded normally in the presence of 3-methyladenine (3MA)
COc1ccc(/C=C/C(=O)/C=C/c2ccc(OC)c(OC)c2)cc1OC [Compound 215686],"decrease of necrosis induced by zVAD-fmk/DMSO, in words",U-937 cells,also decreased necrosis induced by zVAD-fmk/DMSO
same,"inhibition of necrosis induced by TNFα/zVAD.fmk, in words",U937 cells,identified to decrease necrosis in response to exposure of the cell to zVAD-fmk and TNFα
O=C1NC(=S)NC1Cc1c[nH]c2ccccc12 (stereo not shown) [Nec-1i],"restoration of CTL activation/proliferation suppressed by zVAD.fmk, in words",CD8+ cells,does not affect T cell proliferation; also recorded: failed to restore T cell proliferation
same,"inhibition of RIP1 autophosphorylation, in words",RIP1,showed significantly reduced activity in inhibiting RIP1 autophosphorylation
same,"protection from OGD-induced neuronal death, in words",primary cortical neurons,failed to rescue neuronal cell death
same,"antinecroptotic (anti-CICD) activity, in words",[2],does not inhibit CICD in vitro; also recorded: completely abolished antinecroptotic activity
COc1ccc2c(c1)C1=NN(C(C)=O)C(c3ccc(F)cc3)C1CC2 (stereo not shown) [Nec-3],"decrease of necrosis induced by zVAD-fmk/DMSO, in words",U-937 cells,also decreased necrosis induced by zVAD-fmk/DMSO
same,LD50,[3],143 µM
same,EC50,"[2]; Homo sapiens, Jurkat, concentration required to rescue 50% of cell death, TNFα for 36 hours, ATP assay, read-out: EC50",970 nM
same,"inhibition of necrosis induced by TNFα/zVAD.fmk, in words",U937 cells; listed as 140,identified as an inhibitor of necrosis
same,"inhibition of necrosis induced by TNFα/zVAD.fmk, in words",U937 cells; listed as 210227,identified to decrease necrosis in response to exposure of the cell to zVAD-fmk and TNFα
